This is an account of results in ChEMBL document CHEMBL4049402, “Synthesis and cytotoxic activity of novel tetrahydrobenzodifuran-imidazolium salt derivatives” (Bioorg Med Chem Lett, 2017).

One experiment relates to HL-60. Nature of the experiment: Cytotoxicity against human HL60 cells after 48 hrs by MTT assay. Type of experiment: functional, cell-based. In general terms: Formazan colour is commonly taken as a measure of viable cells.
Experiment [1] relates to SMMC-7721. In words: Cytotoxicity against human SMMC7721 cells after 48 hrs by MTT assay. Type of experiment: functional, cell-based.
In a further experiment the test system is A549. In words: Cytotoxicity against human A549 cells after 48 hrs by MTT assay. Type of experiment: functional, cell-based.
The test system of experiment [2] is MCF7. In words: Cytotoxicity against human MCF7 cells after 48 hrs by MTT assay. It is filed as functional, cell-based.
The test system of another experiment is SW480. Nature of the experiment: Cytotoxicity against human SW480 cells after 48 hrs by MTT assay. It is filed as functional, cell-based.
Experiment [3] deals with SMMC-7721. In words: Potency index, ratio of cisplatin IC50 to compound IC50 for human SMMC7721 cells. Type of experiment: functional.
For experiment [4], the system named is MCF7. Nature of the experiment: Potency index, ratio of cisplatin IC50 to compound IC50 for human MCF7 cells. It is filed as functional.
Experiment [5] concerns SMMC-7721. Nature of the experiment: Induction of apoptosis in human SMMC7721 cells assessed as live cells at 4 uM after 48 hrs by Annexin-V-FITC/propidium iodide staining based flow cytometry (reference value: 92.6%). It is filed as functional. (In general: Flow cytometry measures light scatter and fluorescence of single cells or particles in a stream.)
Experiment [6] has as its system SMMC-7721. In words: Induction of apoptosis in human SMMC7721 cells assessed as early apoptotic cells at 4 uM after 48 hrs by Annexin-V-FITC/propidium iodide staining based flow cytometry (reference value: 1.82%). Type of experiment: functional.
Experiment [7] concerns SMMC-7721. Nature of the experiment: Induction of apoptosis in human SMMC7721 cells assessed as late apoptotic cells at 4 uM after 48 hrs by Annexin-V-FITC/propidium iodide staining based flow cytometry (reference value: 2.42%). It is filed as functional.
In experiment [8] the test system is SMMC-7721. Nature of the experiment: Induction of apoptosis in human SMMC7721 cells assessed as necrotic cells at 4 uM after 48 hrs by Annexin-V-FITC/propidium iodide staining based flow cytometry (reference value: 3.18%). It is filed as functional.
The test system of experiment [9] is SMMC-7721. In words: Induction of apoptosis in human SMMC7721 cells assessed as live cells at 8 uM after 48 hrs by Annexin-V-FITC/propidium iodide staining based flow cytometry (reference value: 92.6%). Type of experiment: functional.
The test system of experiment [10] is SMMC-7721. In words: Induction of apoptosis in human SMMC7721 cells assessed as early apoptotic cells at 8 uM after 48 hrs by Annexin-V-FITC/propidium iodide staining based flow cytometry (reference value: 1.82%). Type of experiment: functional.
The subject of experiment [11] is SMMC-7721. Nature of the experiment: Induction of apoptosis in human SMMC7721 cells assessed as late apoptotic cells at 8 uM after 48 hrs by Annexin-V-FITC/propidium iodide staining based flow cytometry (reference value: 2.42%). Type of experiment: functional.
Experiment [12] relates to SMMC-7721. Nature of the experiment: Induction of apoptosis in human SMMC7721 cells assessed as necrotic cells at 8 uM after 48 hrs by Annexin-V-FITC/propidium iodide staining based flow cytometry (reference value: 3.18%). It is filed as functional.
The subject of experiment [13] is SMMC-7721. Nature of the experiment: Induction of apoptosis in human SMMC7721 cells assessed as live cells at 12 uM after 48 hrs by Annexin-V-FITC/propidium iodide staining based flow cytometry (reference value: 92.6%). It is filed as functional.
Experiment [14] deals with SMMC-7721. In words: Induction of apoptosis in human SMMC7721 cells assessed as early apoptotic cells at 12 uM after 48 hrs by Annexin-V-FITC/propidium iodide staining based flow cytometry (reference value: 1.82%). It is filed as functional.
The test system of experiment [15] is SMMC-7721. Nature of the experiment: Induction of apoptosis in human SMMC7721 cells assessed as late apoptotic cells at 12 uM after 48 hrs by Annexin-V-FITC/propidium iodide staining based flow cytometry (reference value: 2.42%). Type of experiment: functional.
For experiment [16], the system named is SMMC-7721. Nature of the experiment: Induction of apoptosis in human SMMC7721 cells assessed as necrotic cells at 12 uM after 48 hrs by Annexin-V-FITC/propidium iodide staining based flow cytometry (reference value: 3.18%). It is filed as functional.
The subject of experiment [17] is SMMC-7721. Nature of the experiment: Induction of apoptosis in human SMMC7721 cells assessed as live cells at 16 uM after 48 hrs by Annexin-V-FITC/propidium iodide staining based flow cytometry (reference value: 92.6%). Type of experiment: functional.
The subject of experiment [18] is SMMC-7721. Nature of the experiment: Induction of apoptosis in human SMMC7721 cells assessed as early apoptotic cells at 16 uM after 48 hrs by Annexin-V-FITC/propidium iodide staining based flow cytometry (reference value: 1.82%). It is filed as functional.
Experiment [19] relates to SMMC-7721. Nature of the experiment: Induction of apoptosis in human SMMC7721 cells assessed as late apoptotic cells at 16 uM after 48 hrs by Annexin-V-FITC/propidium iodide staining based flow cytometry (reference value: 2.42%). Type of experiment: functional.
The subject of experiment [20] is SMMC-7721. Nature of the experiment: Induction of apoptosis in human SMMC7721 cells assessed as necrotic cells at 16 uM after 48 hrs by Annexin-V-FITC/propidium iodide staining based flow cytometry (reference value: 3.18%). Type of experiment: functional.
Experiment [21] concerns SMMC-7721. In words: Cell cycle arrest in human SMMC7721 cells assessed as accumulation at G0/G1 phase at 2 uM after 24 hrs by propidium iodide staining based flow cytometry (reference value: 70.12 +/- 0.18%). It is filed as functional.
For experiment [22], the system named is SMMC-7721. Nature of the experiment: Cell cycle arrest in human SMMC7721 cells assessed as accumulation at G0/G1 phase at 4 uM after 24 hrs by propidium iodide staining based flow cytometry (reference value: 70.12 +/- 0.18%). It is filed as functional.
Experiment [23] relates to SMMC-7721. In words: Cell cycle arrest in human SMMC7721 cells assessed as accumulation at S phase at 2 uM after 24 hrs by propidium iodide staining based flow cytometry (reference value: 20.18 +/- 0.02%). It is filed as functional.
The subject of experiment [24] is SMMC-7721. Nature of the experiment: Cell cycle arrest in human SMMC7721 cells assessed as accumulation at S phase at 4 uM after 24 hrs by propidium iodide staining based flow cytometry (reference value: 20.18 +/- 0.02%). Type of experiment: functional.
For experiment [25], the system named is SMMC-7721. Nature of the experiment: Cell cycle arrest in human SMMC7721 cells assessed as accumulation at G2/M phase at 2 uM after 24 hrs by propidium iodide staining based flow cytometry (reference value: 3.12 +/- 0.02%). Type of experiment: functional.
In experiment [26] the test system is SMMC-7721. In words: Cell cycle arrest in human SMMC7721 cells assessed as accumulation at G2/M phase at 4 uM after 24 hrs by propidium iodide staining based flow cytometry (reference value: 3.12 +/- 0.02%). Type of experiment: functional.
For experiment [27], the system named is SMMC-7721. Nature of the experiment: Cell cycle arrest in human SMMC7721 cells assessed as increase in G1 population after 24 hrs by propidium iodide staining based flow cytometry. It is filed as functional.

Usually IC50 stands for the concentration that inhibits the measured activity by half. For `Cc1n(Cc2c3c(cc4c2OCC4)OCC3)c2ccccc2[n+]1CC(=O)c1ccc2ccccc2c1.[Br-]`, the concentration for half-maximal inhibition (IC50) in the experiment on HL-60 (Homo sapiens, HL-60, 48 h) turned out to be 0.8 µM; with SMMC-7721 [1] (Homo sapiens, SMMC-7721, 48 h) it was 4.52 µM; with A549 (Homo sapiens, A549, 48 h), 6.1 µM; with MCF7 [2] (Homo sapiens, MCF7, 48 h) it was 1.65 µM; in the experiment on SW480 (Homo sapiens, SW480, 48 h) it was 4.49 µM. Further, the “Ratio IC50” value with SMMC-7721 [3] is 2.7; with MCF7 [4] it was 8.4. Also, the Activity stood at 91.9% in the experiment on SMMC-7721 [5]; 1.43% in the experiment on SMMC-7721 [6]; 3.18% in the experiment on SMMC-7721 [7]; 3.44% in the experiment with SMMC-7721 [8]; 87.1% in the experiment with SMMC-7721 [9]; 0.86% with SMMC-7721 [10]. For the same molecule, the Activity amounted to 4.64% with SMMC-7721 [11]; 7.42% with SMMC-7721 [12]; 30.7% in the experiment with SMMC-7721 [13]; 0.98% in the experiment on SMMC-7721 [14]; 37.3% in the experiment on SMMC-7721 [15]; 31% in the experiment on SMMC-7721 [16]. Further, the Activity in the experiment on SMMC-7721 [17] came to 0.69%; in the experiment with SMMC-7721 [18] it was 0.43%; in the experiment on SMMC-7721 [19], 92.4%; in the experiment with SMMC-7721 [20], 6.48%; with SMMC-7721 [21], 70.58%; in the experiment with SMMC-7721 [22], 79.57%. The Activity with SMMC-7721 [23] is 14.85%; with SMMC-7721 [24] it was 8.75%; in the experiment on SMMC-7721 [25] it was 4.37%; in the experiment with SMMC-7721 [26], 0.94%; in the experiment with SMMC-7721 [27], “Dose-dependent effect”.
In the case of `O=[N+]([O-])c1ccc(C[n+]2ccn(Cc3c4c(cc5c3OCC5)OCC4)c2)cc1`, the half-inhibitory concentration (IC50) in the experiment with HL-60 (Homo sapiens, HL-60, 48 h) is greater than 20 µM; in the experiment on SMMC-7721 [1] (Homo sapiens, SMMC-7721, 48 h) it was greater than 20 µM; in the experiment with A549 (Homo sapiens, A549, 48 h), greater than 20 µM; in the experiment on MCF7 [2] (Homo sapiens, MCF7, 48 h), greater than 20 µM; in the experiment with SW480 (Homo sapiens, SW480, 48 h), greater than 20 µM.
As to `O=C(C[n+]1cn(Cc2c3c(cc4c2OCC4)OCC3)c2ccccc21)c1ccc2ccccc2c1`, the 50% inhibitory concentration (IC50) with HL-60 (Homo sapiens, HL-60, 48 h) came out at 1.88 µM; in the experiment on SMMC-7721 [1] (Homo sapiens, SMMC-7721, 48 h), 5.25 µM; in the experiment on A549 (Homo sapiens, A549, 48 h), 7.73 µM; in the experiment with MCF7 [2] (Homo sapiens, MCF7, 48 h) it was 2.2 µM; with SW480 (Homo sapiens, SW480, 48 h), 5.42 µM.
For `Cc1n(Cc2c3c(cc4c2OCC4)OCC3)c2ccccc2[n+]1CC(=O)c1ccccc1`, in that order: greater than 20 µM, greater than 20 µM, greater than 20 µM, greater than 20 µM and greater than 20 µM.
For `c1cn(Cc2c3c(cc4c2OCC4)OCC3)cn1`, in that order: greater than 20 µM, greater than 20 µM, greater than 20 µM, greater than 20 µM and greater than 20 µM.
For `O=[N+]([O-])c1ccc(C[n+]2cn(Cc3c4c(cc5c3OCC5)OCC4)c3ccccc32)cc1`, the IC50 in the experiment on HL-60 (Homo sapiens, HL-60, 48 h) was greater than 20 µM; with SMMC-7721 [1] (Homo sapiens, SMMC-7721, 48 h) it was greater than 20 µM; in the experiment on A549 (Homo sapiens, A549, 48 h), greater than 20 µM; in the experiment with MCF7 [2] (Homo sapiens, MCF7, 48 h), greater than 20 µM; in the experiment on SW480 (Homo sapiens, SW480, 48 h), greater than 20 µM.
As for `Cc1ccc(C[n+]2cn(Cc3c4c(cc5c3OCC5)OCC4)c3cc(C)c(C)cc32)cc1`, the IC50 in the experiment on HL-60 (hl-60) was found to be 1.58 µM; with SMMC-7721 [1] (Homo sapiens, SMMC-7721, 48 h) it was 4.43 µM; with A549 (Homo sapiens, A549, 48 h), 5.82 µM; with MCF7 [2] (Homo sapiens, MCF7, 48 h) it was 7.39 µM; with SW480 (Homo sapiens, SW480, 48 h), 6.15 µM.
As for `Cc1cc2c(cc1C)[n+](Cc1ccc(Br)cc1)cn2Cc1c2c(cc3c1OCC3)OCC2`, the half-inhibitory concentration (IC50) turned out to be 0.57 µM in the experiment with HL-60 (hl-60); 6.61 µM with SMMC-7721 [1] (smmc-7721); 9.01 µM in the experiment on A549 (a549); 8.05 µM in the experiment with MCF7 [2] (mcf7); 7.76 µM with SW480 (sw480).
